Results: paper PMC4175339, “Inhibition of the Functional Interplay between Endoplasmic Reticulum (ER) Oxidoreduclin-1α (Ero1α) and Protein-disulfide Isomerase (PDI) by the Endocrine Disruptor Bisphenol A” (The Journal of Biological Chemistry, 2014)

Molecular target: T1, human PDI + hyperactive human Ero1α (Ero1α-mediated PDI oxidation) (Homo sapiens, UniProt P07237)
T1 construct: gene P4HB; recombinant from E. coli; with ERO1-like protein alpha
Assay: NADPH consumption assay coupled to glutathione reductase, A340
Type: biochemical

T1 sequence (P07237 18-508): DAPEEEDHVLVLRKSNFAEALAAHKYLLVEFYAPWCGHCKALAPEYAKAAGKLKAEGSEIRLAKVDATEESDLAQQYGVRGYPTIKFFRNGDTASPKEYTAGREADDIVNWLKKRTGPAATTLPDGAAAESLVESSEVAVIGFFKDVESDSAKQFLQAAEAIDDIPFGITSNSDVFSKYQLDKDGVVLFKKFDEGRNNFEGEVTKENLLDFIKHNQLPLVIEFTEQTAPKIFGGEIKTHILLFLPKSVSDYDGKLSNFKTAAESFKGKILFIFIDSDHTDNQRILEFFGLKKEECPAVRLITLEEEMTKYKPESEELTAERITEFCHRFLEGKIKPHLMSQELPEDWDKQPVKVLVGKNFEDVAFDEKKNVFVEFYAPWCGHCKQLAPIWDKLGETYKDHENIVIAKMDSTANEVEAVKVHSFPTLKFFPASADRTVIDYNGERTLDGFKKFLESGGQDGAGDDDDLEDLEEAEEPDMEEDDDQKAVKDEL
T1 sequence (Q96HE7 24-468 C104A/C131A partner): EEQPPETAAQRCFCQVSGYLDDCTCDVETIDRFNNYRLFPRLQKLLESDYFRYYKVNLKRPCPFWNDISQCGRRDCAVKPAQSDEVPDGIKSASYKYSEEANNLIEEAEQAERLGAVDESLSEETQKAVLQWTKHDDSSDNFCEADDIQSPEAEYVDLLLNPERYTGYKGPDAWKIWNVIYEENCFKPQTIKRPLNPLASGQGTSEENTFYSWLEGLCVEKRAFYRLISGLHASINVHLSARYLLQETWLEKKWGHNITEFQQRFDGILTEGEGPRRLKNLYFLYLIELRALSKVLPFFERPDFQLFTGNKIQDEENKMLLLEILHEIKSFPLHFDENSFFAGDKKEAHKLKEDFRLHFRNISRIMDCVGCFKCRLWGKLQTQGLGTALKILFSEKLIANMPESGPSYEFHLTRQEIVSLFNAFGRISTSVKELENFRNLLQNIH

IC50: 41 µM
Compound: CC(C)(c1ccc(O)cc1)c1ccc(O)cc1 [bisphenol A, 2,2′-bis(4-hydroxyphenyl) propane]
